# Source: patent US8058068B2, “Peptide-enhanced transfections” (Life Technologies Corporation, priority 1995, dated 2011)
# Ends that are not written are not given here. Sp‑5‑CO = N-terminal spermine conjugate
# Key:
# NIH/3T3 cells = assay type: cell-based; details: peak activity
# Description: Two versions of the Tat peptide were synthesized: one with the DNA-binding group carboxyspermine on the N-terminus and one without. The core TAT sequence employed was […] [SEQ ID NO:123]. The ability of the TAT peptide and the carboxyspermine-modified TAT peptide to enhance cationic lipid-mediated transfection was tested.
# Transfection was performed in NIH/3T3 cells, in 24-well plates. Seeding density was 6×10^4 cells/well. For each condition, the standard PLUS protocol was used (see example 3) for complexing. All complexes were prepared in OptiMEM reduced serum media. Cells were harvested and assayed for β-galactosidase acivity in the soluble extracts by luminescent assay (see example 8). […] A clear enhancement is seen.
# K562 cells = assay type: cell-based, human
# Jurkat cells = assay type: cell-based, human
# COS-7 cells = experiment: Dendrimer-mediated and Lipofectamine transfection +/- peptides, luciferase assay; assay type: cell-based; details: K16NLS (peak 2) 1, Sp-NLSNLS 1.5, NLS 20 μg/well
# Human fibroblasts [1] = experiment: Receptor-ligand proteins with Sp-NLSNLS in DNA pre-complexes, lipid transfection, β-galactosidase assay
# Description: (§1) In separate experiments, CHO-K1 cells were seeded at 6×10^4 cells/well, and human fibroblasts were seeded at 8×10^4 cells/well in 24-well plates in DMEM supplemented with 10% fetal bovine serum and allowed to grow overnight.
# CHO-K1 cells [2] = experiment: as above; details: DNA precomplexed with Sp-NLSNLS and the ligand protein(s)
# Description: as §1
# Human fibroblasts [3] = assay type: cell-based
# CHO-K1 cells [4] = experiment: Transfection by polycationic lipid reagents other than DOSPA-DOPE +/- Sp-NLSNLS, b-galactosidase assay; assay type: cell-based; details: 24 h
# NIH3T3 cells = experiment: as above; assay type: cell-based; details: 24 h
# Human fibroblasts [5] = experiment: as above; assay type: cell-based; details: 24 h
# [6] = Transfection Agent Arg DMER 3 μg/well, chloroquine
# [7] = Transfection Agent G7 (EDA) 3 μg/well, chloroquine
# [8] = Transfection Agent G9 (EDA) 3 μg/well, chloroquine
# [9] = Transfection Agent Lipofectamine 1 μL/well
# [10] = Transfection Agent Lys DMER 3 μg/well, chloroquine
# [11] = Transfection Agent “COMB BURST” 3 μg/well, chloroquine
# [12] = “LIPOFECTIN”, DNA precomplexed with Sp-NLSNLS and the ligand protein(s)
# [13] = polycationic lipid with DNA alone
Substance,Enhancement-Fold (DMRIE-C transfections at peak activity) (K562 cells) [Fold],Enhancement-Fold (DMRIE-C transfections at peak activity) (Jurkat cells) [Fold],RLU (luciferase) (COS-7 cells; [6]) [RLU],RLU (luciferase) (COS-7 cells; [7]) [RLU],RLU (luciferase) (COS-7 cells; [8]) [RLU],RLU (luciferase) (COS-7 cells; [9]) [RLU],RLU (luciferase) (COS-7 cells; [10]) [RLU],RLU (luciferase) (COS-7 cells; [11]) [RLU],other results
CGYGRKKRRQRRRG [TAT],,,,,,,,,ng b-Gal per cm2 (NIH/3T3 cells): 0.1 ng b-Gal per cm2; ng b-Gal per ug Protein (NIH/3T3 cells): 0.00 ng b-Gal per ug Protein
"GLFEAIAEFIEGGWEGLIEG [E5, hemagglutinin peptide, modification of FluHa]",3,1.2,,,,,,,
"GYGPKKKRKVGG [NLS, nuclear localization signal of SV40 large T antigen]",,,84209,2749,1747,224029,17689,29639,
Insulin: receptor-ligand protein,,,,,,,,,"Peak activity (ng β-gal/cm^2) (Human fibroblasts [1]; DMRIE-DOPE, DNA precomplexed with Sp-NLSNLS and the ligand protein): 20.7 ng β-gal/cm^2; Peak activity (ng β-gal/cm^2) (Human fibroblasts [1]; [12]): 22.7 ng β-gal/cm^2; Peak activity (ng β-gal/cm^2) (CHO-K1 cells [2]; […]): 452 ng β-gal/cm^2; Peak activity (ng β-gal/cm^2) (CHO-K1 cells [2]; “LIPOFECTIN”): 31 ng β-gal/cm^2"
K16CGYGPKKKRKVGGGGRGDSP (KKKKKKKKKKKKKKKKGGCGYGPKKKRKVGGKFTIVF) [K16NLSRGD],1,1,,,,,,,
K16GGCGYGPKKKRKVGG [K16NLS (peak 2)],1,1,63307,3423,2297,164105,20847,28562,
"Sp-5-CO-GGYGPKKKRKVGGGGYGPKKKRKVGG ({Sp‑5‑CO}-GGYGPKKKRKVGGGGYGPKKKRKVGG) [Sp-NLSNLS, the peptide NLSNLS conjugated to spermine]",,,56548,2832,1702,200447,17203,23503,Enhancement levels (β-galactosidase activity) (Human fibroblasts [3]): 5-8 fold
Transferrin: receptor-ligand protein,,,,,,,,,"Peak activity (ng β-gal/cm^2) (Human fibroblasts [1]; […], DNA precomplexed with Sp-NLSNLS and the ligand protein(s)): 24.5 ng β-gal/cm^2; Peak activity (ng β-gal/cm^2) (Human fibroblasts [1]; [12]): 30.6 ng β-gal/cm^2; Peak activity (ng β-gal/cm^2) (CHO-K1 cells [2]; […]): 433 ng β-gal/cm^2; Peak activity (ng β-gal/cm^2) (CHO-K1 cells [2]; “LIPOFECTIN”): 44 ng β-gal/cm^2"
sp-TAT: Tat peptide CGYGRKKRRQRRRG with the DNA-binding group carboxyspermine on the N-terminus (carboxyspermine-CGYGRKKRRQRRRG),,,,,,,,,ng b-Gal per cm2 (NIH/3T3 cells): 0.06 ng b-Gal per cm2; ng b-Gal per ug Protein (NIH/3T3 cells): 0.00 ng b-Gal per ug Protein
tetramethyldioleyl spermine [TMDOS],,,,,,,,,"Peak activity, Lipid + SpNLSNLS (CHO-K1 cells [4]; DNA precomplexed to Sp-NLSNLS): 2.9 ng b-gal/cm^2; Peak activity, Lipid alone (CHO-K1 cells [4]; [13]): 1.4 ng b-gal/cm^2; Peak activity, Lipid + SpNLSNLS (NIH3T3 cells; DNA precomplexed to Sp-NLSNLS): 1.3 ng b-gal/cm^2; Peak activity, Lipid alone (NIH3T3 cells; [13]): 0.2 ng b-gal/cm^2; Peak activity, Lipid + SpNLSNLS (Human fibroblasts [5]; DNA precomplexed to Sp-NLSNLS): 0.1 ng b-gal/cm^2; Peak activity, Lipid alone (Human fibroblasts [5]; [13]): 0.01 ng b-gal/cm^2"
